Data from patent publication US9669061B2, “Medicinal agent exhibiting antiprotozoal activity to Trichomonas vaginalis in an in-vitro model system” (Viktor Ivanovich Roschin, priority 2008, dated 2017).
In brackets after ≈: the same amount, converted by molar mass.

System: T. vaginalis isolates
Test: Sensitivity of T. vaginalis isolates to metronidazole (serial dilution MIC by immobilisation; lysis method for amastigote forms)
Format: cell-based, Trichomonas vaginalis
Conditions: for MIC: Trichomonas vaginalis
Experimental: Then, the sensitivity of T. vaginalis to metronidazole was examined in vitro, using as an indicator the immobilisation of the trichomonad by the test-substance. For the sensitivity test, 90% or more of the protozoa were required to be motile. The sensitivity of T. vaginalis isolates to metronidazole was determined using serials dilution and the minimum inhibitory concentration (MIC) method. 4.0 ml of the medium was placed in test tubes and mixed with 0.5 ml of solution various concentrations of metronidazole—from 0.25 to 1000 μg/ml, or 1 mg/ml).
Then, 0.5 ml of pathogenic culture containing a known concentration of T. vaginalis (cells/ml) was added to the test tubes. Media without the test substance was used as a control. Vaseline was added to the surface (0.5 mm layer) of the tubes to create anaerobic conditions necessary for the growth of T.vaginalis. The test tubes were then placed in a thermostat at 37° C. Results were recorded 48 and 96 hours after inoculation.
The sensitivity of trichomonad to metronidazole was determined based on the minimum inhibitory concentration (MIC), which causes immobilisation of all cells of T.vaginalis. The strains were considered as resistant to metronidazole, when immobilisation occurred at concentration of metronidazole exceeding 15 μg/ml.
The MIC method cannot be used when atypical, amastigote (lacking flagella) T. vaginalis are present. Instead, a common in vitro lysis method for determining the sensitivity to antiprotozoal medications was used. Lysis of all trichomonas is an indicator of the efficacy of the test substance. Nutrient media containing trichomonas without metronidazole was used as a control. Metronidazole, at concentrations of 10, 15, 25, and 50 μg/ml was used in this experiment. Strains that lysed at a concentration of 25 μg/ml were considered resistant to metronidazole.

MIC (isolate 1 (actively mobile)): 15 µg/mL (≈ 87.6 µM)
MIC (isolate 2 (actively mobile)): 15 µg/mL (≈ 87.6 µM)
MIC (isolate 3 (actively mobile)): 25 µg/mL (≈ 146 µM)
MIC (isolate 4 (amastigote)): 50 µg/mL (≈ 292 µM)
MIC (isolate 5 (amastigote)): 25 µg/mL (≈ 146 µM)
MIC (isolate 6 (amastigote)): 50 µg/mL (≈ 292 µM)
MIC (isolate 7 (amastigote)): 25 µg/mL (≈ 146 µM)
MIC (isolate 8 (amastigote)): 25 µg/mL (≈ 146 µM)
MIC (isolate 9 (amastigote)): > 50 µg/mL
MIC (isolate 10 (amastigote)): 50 µg/mL (≈ 292 µM)
MIC (strains 4, 6, 9 and 10): > 25 µg/mL
SMILES: Cc1ncc([N+](=O)[O-])n1CCO [Metronidazole, metronidazole]
number of isolates (out of 10) on which metronidazole had an effect (metronidazole 15 μg/ml): 2
resistance of isolates to metronidazole (the rest of the isolates (not affected at 15 μg/ml)): resistant
